Source: paper PMC5602100, “Retro analog concept: comparative study on physico-chemical and biological properties of selected antimicrobial peptides” (Amino Acids, 2017)
Read-outs that look alike come from different tables or passages of the source. Ends that are not written are not given here.

Columns and labels:
S. aureus ATCC 9144 = settings: ATCC 9144, 18 h
Procedure: (§1) The minimal inhibitory concentrations (MICs) for bacteria and fungi were determined by the broth microdilution method according to the Clinical and Laboratory Standards Institute (CLSI) protocol (Clinical and Laboratory Standards Institute (CLSI) [2002], [2012]). For this purpose, the initial inoculums of bacteria (5 × 10^5 CFU/mL) in Mueller–Hinton Broth (Biocorp, Warsaw, Poland) were exposed to the ranging concentrations of compounds (0.125–256 µg/mL) and incubated for 18 h at 37 °C. In case of fungi, the initial inoculums of 2 × 10^3 CFU/mL in RPMI-1640 (Sigma-Aldrich, Steinheim, Germany) were exposed to the ranging concentrations of compounds (0.5–256 µg/mL) and incubated for 24 h at 37 °C. The experiments were conducted on 96-well microtiter plates, with the final volume of 100 µL. Cell densities were adjusted spectrophotometrically (Multiskan™ GO Microplate Spectrophotometer, Thermo Scientific) at the wavelengths of 600 nm for bacteria and 530 nm for fungi. The MIC was taken as the lowest drug concentration at which a noticeable growth of microorganisms was inhibited. Reference strains of bacteria: Escherichia coli ATCC 25922, E. coli ATCC 23506, Enterococcus faecalis PCM 2673, Klebsiella pneumoniae ATCC 700603, Pseudomonas aeruginosa ATCC 9027, Staphylococcus aureus ATCC 25923, S. aureus 9144, Streptococcus pneumoniae ATCC 49619, and fungi: Aspergillus niger ATCC 16404, Candida albicans ATCC 10231, and C. glabrata ATCC 15126 were obtained from Polish Collection of Microorganisms (PCM, Polish Academy of Sciences, Wroclaw, Poland) and from American Type Culture Collection (ATCC). All experiments were conducted in triplicate.

P. aeruginosa ATCC 9027 = settings: ATCC 9027, 18 h
Procedure: as §1

E. faecalis PCM 2673 = settings: PCM 2673, 18 h
Procedure: as §1

S. pneumoniae ATCC 49619 = settings: ATCC 49619, 18 h
Procedure: as §1

E. coli ATCC 23506 = settings: ATCC 23506, 18 h
Procedure: as §1

[1] = test system: K. pneumoniae ATCC 700603
Procedure: as §1

C. glabrata ATCC 15126 = test system: C. glabrata ATCC 15126
Procedure: as §1

S. aureus ATCC 25923 = settings: ATCC 25923, 18 h
Procedure: as §1

A. niger ATCC 16404 = test system: A. niger ATCC 16404
Procedure: as §1

C. albicans ATCC 10231 = test system: C. albicans ATCC 10231
Procedure: as §1

E. coli ATCC 25922 = settings: ATCC 25922, 18 h
Procedure: as §1

[2] = test system: human red blood cells (RBCs); experiment: Hemolysis assay; format: cell-based; settings: fresh human RBCs 4% (v/v) in PBS, 60 min at 37 °C, absorbance 540 nm, 100% control 1% Triton-X 100, triplicate
Procedure: The hemolysis assay was conducted according to the procedure described previously in the literature (Avrahami and Shai [2004]). Fresh human red blood cells (RBCs) with EDTA as anticoagulant were rinsed three times with a phosphate-buffer saline (PBS) by centrifugation at 800×g for 10 min and resuspended in PBS. Serial dilution of peptides (1–512 µg/mL) was conducted in PBS on 96-well plates. Then the stock solution of RBCs was added to reach a final volume of 100 µL with a 4% concentration of erythrocytes (v/v). The control wells for 0 and 100% hemolysis consisted of RBCs suspended in PBS and 1% of Triton-X 100, respectively. Subsequently, the plates were incubated for 60 min at 37 °C and then centrifuged at 800×g for 10 min at 4 °C (Sorvall ST 16R Centrifuge, Thermo Scientific). After centrifugation the supernatant was carefully […] to new microtiter plates and the release of hemoglobin was monitored by measurement of absorbance at 540 nm (Multiskan™ GO Microplate Spectrophotometer, Thermo Scientific). All experiments were conducted in triplicate.

[3] = broth microdilution (CLSI), 2 × 10^3 CFU/mL in RPMI-1640, 0.5–256 µg/mL, 24 h at 37 °C, triplicate

Row | Substance | MIC, S. aureus ATCC 9144 (S. aureus ATCC 9144) [µg/mL] | MIC, P. aeruginosa ATCC 9027 (P. aeruginosa ATCC 9027) [µg/mL] | MIC, E. faecalis PCM 2673 (E. faecalis PCM 2673) [µg/mL] | MIC, S. pneumoniae ATCC 49619 (S. pneumoniae ATCC 49619) [µg/mL] | MIC, E. coli ATCC 23506 (E. coli ATCC 23506) [µg/mL] | MIC, K. pneumoniae ATCC 700603 ([1]; ATCC 700603, 18 h) [µg/mL] | MIC, C. glabrata ATCC 15126 (C. glabrata ATCC 15126; ATCC 15126, 24 h) [µg/mL] | MIC, S. aureus ATCC 25923 (S. aureus ATCC 25923) [µg/mL] | MIC, A. niger ATCC 16404 (A. niger ATCC 16404; ATCC 16404, 24 h) [µg/mL] | MIC, C. albicans ATCC 10231 (C. albicans ATCC 10231; ATCC 10231, 24 h) [µg/mL] | MIC, E. coli ATCC 25922 (E. coli ATCC 25922) [µg/mL] | MIC, K. pneumoniae ATCC 700603 ([1]; broth microdilution (CLSI), 5 × 10^5 CFU/mL in Mueller–Hinton Broth, 0.125–256 µg/mL, 18 h at 37 °C, triplicate) [µg/mL] | MIC, C. glabrata ATCC 15126 (C. glabrata ATCC 15126; [3]) [µg/mL] | MIC, A. niger ATCC 16404 (A. niger ATCC 16404; [3]) [µg/mL] | MIC, C. albicans ATCC 10231 (C. albicans ATCC 10231; [3]) [µg/mL] | rate of hemolysis at MIC concentrations [2]
1 | FLPLIGRVLSGIL-NH2 [temporin A] | 8 | >256 | 64 | >256 | >256 | 128 | >256 | 4 | 256 | 256 | 256 | – | – | – | – | –
2 | FSEAIKKIIDFLG-NH2 [r-aurein 1.2] | >256 | >256 | 256 | 256 | 256 | 128 | >256 | >256 | >256 | >256 | 256 | – | – | – | – | –
3 | GIGKFLKKAKKFGKAFVKILKK-NH2 [pexiganan] | 8 | 2 | 16 | 1 | 2 | 1 | 256 | 8 | 16 | 256 | 4 | – | – | – | – | –
4 | GLFDIIKKIAESF-NH2 [aurein 1.2] | 128 | 256 | 64 | 64 | 128 | – | – | 128 | – | – | 128 | 16 | 128 | 64 | 128 | lower than 10%
5 | GLFDVIKKVASVIGGL-NH2 [citropin 1.1] | 16 | 128 | 32 | 32 | 32 | 16 | 128 | 16 | 64 | 128 | 32 | – | – | – | – | –
